Measurements as given in patent US9676761B2, “Difluoroethyl-oxazole substituted bridged spiro[2.4]heptane derivatives as ALX receptor agonists” (ACTELION PHARMACEUTICALS LTD, priority 2013, dated 2017).

Tests used:
[1] = Plasma stability assay (stability in serum), human; type: in vitro ADME; conditions: pH 7.4, 37° C., 1 μM compound; for remaining concentration at Tlast: Tlast 6 h
Method: (§1) Rat or human serum adjusted at pH 7.4 with lactic acid or ammonium hydroxide, were equilibrated at 37° C. under orbital shaking in an incubator containing 5% CO2. The reaction was initiated by the addition of 1 μM of compounds (1 μl of 1 mM stock solution in DMSO in 999 μl of plasma). At 0.01 h, 0.25 h, 0.5 h, 1 h, 2 h, 4 h and 6 h aliquots (30 μl) were transferred in a 96 well plate containing 90 μl MeOH placed on ice to stop the reaction. After vortexing for 20 min at 1400 rpm on an Eppendorf thermomixer, the plates were centrifuged at 3220 g for 20 min at 4° C. and the supernatants were analyzed with LC-MS/MS. Calibration samples in serum containing 0.1% of dichlorvos (2,2-dichlorovinyl-dimethyl-phosphate) were prepared and analysed in parallel to the incubation samples to allow the quantification. Half lives (T1/2) in hours were then calculated. In addition the remaining concentration of the respective compound after time Tlast relative to the concentration at the beginning has been determined (table 3).

[2] = Plasma protein binding assay (Rapid Equilibrium Dialysis), human; type: in vitro ADME; conditions: 1 μM, dialysis 4 h at 37° C., pH 7.4
Method: Plasma Protein Binding Assay
Compounds were added to human plasma adjusted at pH 7.4 with lactic acid or ammonium hydroxide (final concentration 1 μM) and dialyzed with RED (Rapid Equilibrium Dialysis) devices against Phosphate Buffered Saline (0.1M sodium Phosphate and 0.15 M sodium chloride) 0.1 M pH 7.4 for 4 h at 37° C. in an incubator containing 5% CO2. Following dialysis, an aliquot of plasma and buffer were diluted with an equal volume of the opposite matrix to nullify the matrix effect and a calibration was prepared in the mixed matrix. Aliquots of samples and calibrations (30 μl) were transferred in a 96 well plate containing 90 μl MeOH to precipitate the proteins. After vortexing for 20 min at 1400 rpm on an Eppendorf thermomixer, the plates were centrifuged at 3220 g for 20 min at 4° C. and the supernatants were analyzed with LC-MS/MS. Concentrations of analyte were used for the calculation of the fraction bound to plasma. Propranolol [(±)-1-isopropylamino-3-(1-naphthyloxy)-2-propanol], a reference compound, was run in parallel.

human FPR1 receptor = target: T1, human FPR1 receptor (Homo sapiens, UniProt P21462); experiment: FLIPR assay (FPR1 receptor), intracellular calcium measurements in HEK293-hFPR1-Gα16 cells; type: cell-based; conditions: median of n replications, normalized to WKYMVm 10 nM, read-out: EC50 (agonistic activity with respect to the FPR1 receptor)
T1 construct: expressed in transfected cells; host or cells: HEK293 (HEK293-hFPR1-Gα16)
T1 sequence (P21462 1-350): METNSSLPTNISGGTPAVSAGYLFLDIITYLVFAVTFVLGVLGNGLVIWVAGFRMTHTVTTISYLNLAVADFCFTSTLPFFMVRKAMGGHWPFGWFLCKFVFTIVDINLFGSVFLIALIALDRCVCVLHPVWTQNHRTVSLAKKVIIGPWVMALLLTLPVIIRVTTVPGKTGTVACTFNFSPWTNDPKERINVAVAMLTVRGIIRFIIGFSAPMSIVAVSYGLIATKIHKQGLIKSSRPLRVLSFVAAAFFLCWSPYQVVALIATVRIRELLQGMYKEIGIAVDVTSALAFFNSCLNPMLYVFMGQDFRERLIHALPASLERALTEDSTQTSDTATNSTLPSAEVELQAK
Method: FLIPR Assay (FPR1 Receptor)
(§2) Intracellular Calcium Measurements:
(§3) Cells expressing recombinant human FPR1 receptor and the G-protein Gα16 (HEK293-hFPR1-Gα16) were grown to 80% confluency in Growing Medium (GM). Cells were detached from culture dishes with a cell dissociation buffer (Invitrogen, 13151-014), and collected by centrifugation at 1,000 rpm at rt for 5 min in Assay Buffer (AB) (equal parts of Hank's BSS (Gibco, 14065-049) and DMEM without Phenol Red (Gibco, 11880-028)). After 60 min incubation at 37° C. under 5% CO2 in AB supplemented with 1 μM Fluo-4 (AM) (Invitrogen, F14202) and 20 mM HEPES (Gibco, 15630-056), the cells were washed and resuspended in AB. They were then seeded onto 384-well FLIPR assay plates (Greiner, 781091) at 50,000 cells in 70 μl per well and sedimented by centrifugation at 1,000 rpm for 1 min. Stock solutions of test compounds were made up at a concentration of 10 mM in DMSO, and serially diluted in AB to concentrations required for activation dose response curves. WKYMVm (Phoenix Peptides) was used as a reference agonist. […] Changes in fluorescence were monitored before and after the addition of test compounds at lex=488 nm and lem=540 nm. […]

[3] = Plasma protein binding assay (Rapid Equilibrium Dialysis), rat; type: in vitro ADME; conditions: 1 μM, dialysis 4 h at 37° C., pH 7.4
human ALX receptor = target: T2, human ALX receptor (Homo sapiens, UniProt P25090); experiment: FLIPR assay (ALX receptor), intracellular calcium measurements in HEK293-hALXR-Gα16 cells; type: cell-based; conditions: median of n replications, normalized to WKYMVm 10 nM, read-out: EC50 (agonistic activity with respect to the ALX receptor)
T2 construct: expressed in transfected cells; host or cells: HEK293 (HEK293-hALXR-Gα16)
T2 sequence (P25090 1-351): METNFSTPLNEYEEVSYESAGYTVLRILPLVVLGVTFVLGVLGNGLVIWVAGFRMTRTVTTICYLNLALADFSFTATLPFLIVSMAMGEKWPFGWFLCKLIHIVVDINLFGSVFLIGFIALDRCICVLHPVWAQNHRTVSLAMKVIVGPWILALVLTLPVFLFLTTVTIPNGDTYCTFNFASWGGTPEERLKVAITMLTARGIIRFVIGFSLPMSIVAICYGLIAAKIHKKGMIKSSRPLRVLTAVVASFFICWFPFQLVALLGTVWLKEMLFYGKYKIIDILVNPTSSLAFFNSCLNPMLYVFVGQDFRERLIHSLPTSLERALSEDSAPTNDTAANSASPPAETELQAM
Method: FLIPR Assay (ALX Receptor)
as §2
as §3, with “ALX” for “FPR1”, “(HEK293-hALXR-Gα16)” for “(HEK293-hFPR1-Gα16)”

[4] = Plasma stability assay (stability in serum), rat; type: in vitro ADME; conditions: pH 7.4, 37° C., 1 μM compound; for remaining concentration at Tlast: Tlast 6 h
Method: as §1

## (1S,2R,3R,4R)—N^2—((4-(1,1-Difluoroethyl)oxazol-2-yl)methyl)-N^3-(trans-3-fluoropiperidin-4-yl)spiro[bicyclo[2.2.1]heptane-7,1′-cyclopropane]-2,3-dicarboxamide [Example 2]
[1]
  remaining concentration at Tlast: >100%
  T1/2: >6 h
[2]
  Plasma protein binding: 63.8%
Human FPR1 receptor
  EC50: > 7000 nM
[3]
  Plasma protein binding: 47.7%
Human ALX receptor
  EC50: 3.6 nM
[4]
  remaining concentration at Tlast: >100%
  T1/2: >6 h

## (1S,2R,3R,4R)—N^2—((4-(1,1-Difluoroethyl)oxazol-2-yl)methyl)-N^3-(trans-3-fluoropiperidin-4-yl)spiro[bicyclo[2.2.1]heptane-7,1′-cyclopropane]-2,3-dicarboxamide [Example 1]
[1]
  remaining concentration at Tlast: 97%
  T1/2: >6 h
[2]
  Plasma protein binding: 54.8%
Human FPR1 receptor
  EC50: > 6000 nM
[3]
  Plasma protein binding: 50.7%
Human ALX receptor
  EC50: 6.6 nM
[4]
  remaining concentration at Tlast: >100%
  T1/2: >6 h
